Measurements as given in US20220372031A1, “NOVEL TRICYCLIC AROMATIC HETEROCYCLIC COMPOUND, PREPARATION METHOD THEREFOR, PHARMACEUTICAL COMPOSITION AND APPLICATION THEREOF” (SHANGHAI LONGWOOD BIOPHARMACEUTICALS CO., LTD., priority 2019, published 2022).

Target: T1, PD-1/PD-L1 (Homo sapiens, UniProt Q9NZQ7)
T1 construct: Recombinant human PD-L1 protein (19-238) with a His-tagged at the C-terminus; purchased AcroBiosystems PD1-H5229 (PD-L1); PD1-H5257 (PD-1)
Assay: PD-1/PD-L1 homogeneous time-resolved fluorescence (HTRF) binding assay
Conditions: PD-1/PD-L1 HTRF binding, ~3 nM PD1, 10 nM PD-L1, 25° C., PBS pH 7.4

T1 sequence (Q9NZQ7 19-238): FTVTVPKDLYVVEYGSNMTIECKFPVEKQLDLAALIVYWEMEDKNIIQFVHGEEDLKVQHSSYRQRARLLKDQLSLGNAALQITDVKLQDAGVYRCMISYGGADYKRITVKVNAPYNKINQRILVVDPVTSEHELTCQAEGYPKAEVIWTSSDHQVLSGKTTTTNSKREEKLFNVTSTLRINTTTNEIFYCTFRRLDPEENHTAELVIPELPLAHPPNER

Structure (SMILES) | IC50
COc1nc(-c2cccc(-c3cccc(-c4cc5cc6c(c(C#N)c5o4)CC[C@H]6N4CC[C@@H](C(=O)O)C4)c3Cl)c2C)cnc1CNC[C@@H]1CCC(=O)N1 [Compound 271] | ≤ 10 nM
COc1nc(-c2cccc(-c3cccc(-c4nc5cc6c(c(C#N)c5o4)CC[C@H]6N4CC[C@@H](C(=O)NS(=O)(=O)C5CC5)C4)c3Cl)c2Cl)ccc1CN1CC[C@@H](O)C1 [Compound 035] | ≤ 10 nM
COc1nc(-c2cccc(-c3cccc(-c4nc5cc6c(c(C#N)c5o4)CC[C@H]6N4CC[C@@H](C(=O)O)C4)c3C)c2Cl)cnc1CN1CC[C@@H](O)C1 [Compound 182] | ≤ 10 nM
Cc1c(Nc2nccc3cc(CN4CC[C@@H](O)C4)cnc23)cccc1-c1cccc(-c2nc3cc4c(c(C#N)c3o2)CCC4N2CC[C@@H](C(=O)O)C2)c1C (stereo partly shown) [Compound 004] | ≤ 10 nM
Cc1c(-c2nc3cc4c(c(C#N)c3o2)CCC4N2CC[C@@H](C(=O)O)C2)cccc1-c1cccc(Nc2nccc3cc(CN4CC[C@@H](O)C4)cnc23)c1Cl (stereo partly shown) [Compound 027] | ≤ 10 nM
Cc1c(Nc2nc(N)nc3cc(CN4CC[C@@H](O)C4)cnc23)cccc1-c1cccc(-c2nc3cc4c(c(C#N)c3o2)CC[C@H]4N2CC[C@@H](C(=O)O)C2)c1C [Compound 015] | ≤ 10 nM
N#Cc1c2c(cc3cc(-c4cccc(-c5cccc(Nc6nccc7cc(CN8CC[C@@H](O)C8)cnc67)c5Cl)c4Cl)oc13)[C@H](N1CC[C@@H](C(=O)O)C1)CC2 [Compound 245] | ≤ 10 nM
